Measurements taken from patent US11426473B2, “Nitrogen-containing compound or salt thereof, or metal complex thereof” (FUJIFILM Corporation, priority 2013, dated 2022).
pIC50: −log10 of the molar value. Read-outs that look alike come from different tables or passages of the source.

Key:
[1] = tested on: U87MG cells subcutaneous tumor; assay: Concentration of radioactivity in tumor of labeled compounds (Test Example 4); format: in vivo, mouse; settings: tail vein, 111In 740 kBq, 64Cu and 90Y 500 kBq
Protocol: U87MG cells were subcutaneously transplanted at 1×10^7 cells/mouse to the right flank of Balb/cAJcl-nu/nu (CLEA Japan, Inc. or Japan SLC, Inc., 6 to 9 weeks old). After 2 to 3 weeks, the mice were divided into groups each involving 3 individuals per point in time when their tumors became 200 to 500 mm^3. The ^111In-labeled compound (740 kBq) was administered to the tail veins of the mice.
After a given time, the animals were sacrificed to extract their tumors. The weights of the tumors were measured, and the radioactivity was measured using a gamma counter to calculate the concentration of radioactivity in the tumors (% ID/g). In the same way as above, the concentration of radioactivity in the tumors (% ID/g) was calculated for the ^64Cu-labeled compound (500 kBq) and the ^90Y-labeled compound (500 kBq).

Integrin αvβ3 = target: T1, Integrin αvβ3 (Homo sapiens, UniProt P05106+P06756); assay: Integrin αvβ3 binding affinity test
T1 construct: purchased Chemicon International, Inc
T1 sequence (P06756 31-889 limits assumed): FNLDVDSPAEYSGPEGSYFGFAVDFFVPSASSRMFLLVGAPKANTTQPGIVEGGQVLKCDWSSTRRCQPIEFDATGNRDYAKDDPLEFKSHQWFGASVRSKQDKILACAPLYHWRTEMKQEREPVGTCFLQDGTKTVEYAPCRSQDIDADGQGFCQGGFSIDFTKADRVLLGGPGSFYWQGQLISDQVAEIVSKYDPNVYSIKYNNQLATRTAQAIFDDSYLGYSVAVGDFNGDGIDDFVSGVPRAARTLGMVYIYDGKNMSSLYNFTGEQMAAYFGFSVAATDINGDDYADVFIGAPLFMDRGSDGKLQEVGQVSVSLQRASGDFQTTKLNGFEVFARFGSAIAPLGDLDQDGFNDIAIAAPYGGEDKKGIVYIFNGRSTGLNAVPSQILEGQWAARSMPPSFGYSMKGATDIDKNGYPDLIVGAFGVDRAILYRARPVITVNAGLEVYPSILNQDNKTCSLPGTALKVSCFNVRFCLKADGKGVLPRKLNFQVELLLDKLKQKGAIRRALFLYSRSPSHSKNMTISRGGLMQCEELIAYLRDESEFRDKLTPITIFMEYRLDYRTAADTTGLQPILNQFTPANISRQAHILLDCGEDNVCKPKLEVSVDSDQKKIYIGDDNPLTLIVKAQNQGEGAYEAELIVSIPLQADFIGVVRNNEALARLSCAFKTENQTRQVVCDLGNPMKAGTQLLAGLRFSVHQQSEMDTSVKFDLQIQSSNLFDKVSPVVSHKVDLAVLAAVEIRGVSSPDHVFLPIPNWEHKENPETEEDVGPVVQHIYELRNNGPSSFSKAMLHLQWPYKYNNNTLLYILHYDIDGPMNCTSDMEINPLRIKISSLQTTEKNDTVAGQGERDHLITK
T1 sequence (P06756 891-1048 partner limits assumed): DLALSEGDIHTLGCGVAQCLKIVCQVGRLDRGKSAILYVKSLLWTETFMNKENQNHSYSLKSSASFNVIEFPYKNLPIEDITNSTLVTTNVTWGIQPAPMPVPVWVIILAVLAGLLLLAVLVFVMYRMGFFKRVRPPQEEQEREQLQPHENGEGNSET
T1 sequence (P05106 27-788): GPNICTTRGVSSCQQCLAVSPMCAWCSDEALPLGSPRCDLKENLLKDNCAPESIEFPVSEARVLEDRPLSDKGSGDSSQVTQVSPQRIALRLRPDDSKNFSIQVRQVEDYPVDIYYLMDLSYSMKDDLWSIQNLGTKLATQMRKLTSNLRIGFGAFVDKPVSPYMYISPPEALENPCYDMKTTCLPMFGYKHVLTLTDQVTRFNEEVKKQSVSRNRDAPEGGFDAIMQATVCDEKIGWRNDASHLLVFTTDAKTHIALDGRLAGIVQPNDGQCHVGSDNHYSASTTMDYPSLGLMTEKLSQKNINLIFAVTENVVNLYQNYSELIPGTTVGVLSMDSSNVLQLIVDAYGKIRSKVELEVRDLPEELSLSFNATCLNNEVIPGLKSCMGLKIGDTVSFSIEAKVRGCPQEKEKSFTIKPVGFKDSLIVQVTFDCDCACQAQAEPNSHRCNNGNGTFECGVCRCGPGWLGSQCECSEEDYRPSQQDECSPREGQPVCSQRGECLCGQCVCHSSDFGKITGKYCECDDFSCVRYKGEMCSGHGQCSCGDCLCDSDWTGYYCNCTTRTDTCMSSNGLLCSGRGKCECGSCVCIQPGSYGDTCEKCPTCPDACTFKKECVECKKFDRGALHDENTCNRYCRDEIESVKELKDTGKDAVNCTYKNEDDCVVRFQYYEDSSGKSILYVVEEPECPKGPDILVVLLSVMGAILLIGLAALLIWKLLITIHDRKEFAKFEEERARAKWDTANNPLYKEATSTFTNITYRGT
Protocol: (§1) […] αvβ3 (Chemicon International, Inc.) was immobilized on each well of a 96-well plate (Corning Inc.). Each well was blocked with a 1% Block Ace (DS Pharma Biomedical Co., Ltd) solution and then washed with T-PBS (PBS containing 0.05% Tween 20). Evaluation compound solutions having a 2-fold concentration (10 concentrations of 3.16-fold dilutions from 0.3 μmol/L, buffer (20 mM Tris-HCl pH 7.5, 150 mM NaCl, 1 mM CaCl2, 1 mM MgCl2, and 1 mM MnCl2)) and a 4 μg/mL biotinylated vitronectin solution (vitronectin (Upstate Biotechnology Inc.) was labeled with EZ-Link Sulfo-NHS-Biotinylation Kit (Pierce/Thermo Fisher Scientific Inc.) and then concentration-adjusted) were each added at 50 μL/well, and the plate was shaken at room temperature for 2 hours. After washing with T-PBS, a 0.2 μg/mL avidin peroxidase (Pierce/Thermo Fisher Scientific Inc.) solution was added thereto, and the plate was shaken at room temperature for 1 hour. After washing with T-PBS, color was developed by an o-phenylenediamine (Sigma-Aldrich Inc.) solution (the reaction was terminated by the addition of 4 mol/L sulfuric acid), and the absorbance was measured (490 nm, Reference: 595 nm). The IC50 value was calculated using XLfit 3.0 (ID Business Solutions Ltd.). RGDfV (Bachem AG) was measured in duplicate as a QC sample for each plate.

Integrin αvβ5 = target: T2, Integrin αvβ5 (Homo sapiens, UniProt P06756+P18084); assay: Integrin αvβ5 binding affinity test
T2 construct: purchased Chemicon International, Inc
T2 sequence (P06756 31-889 limits assumed): as the sequence (P06756 31-889 limits assumed) above
T2 sequence (P06756 891-1048 partner limits assumed): as the sequence (P06756 891-1048 partner limits assumed) above
T2 sequence (P18084 24-799): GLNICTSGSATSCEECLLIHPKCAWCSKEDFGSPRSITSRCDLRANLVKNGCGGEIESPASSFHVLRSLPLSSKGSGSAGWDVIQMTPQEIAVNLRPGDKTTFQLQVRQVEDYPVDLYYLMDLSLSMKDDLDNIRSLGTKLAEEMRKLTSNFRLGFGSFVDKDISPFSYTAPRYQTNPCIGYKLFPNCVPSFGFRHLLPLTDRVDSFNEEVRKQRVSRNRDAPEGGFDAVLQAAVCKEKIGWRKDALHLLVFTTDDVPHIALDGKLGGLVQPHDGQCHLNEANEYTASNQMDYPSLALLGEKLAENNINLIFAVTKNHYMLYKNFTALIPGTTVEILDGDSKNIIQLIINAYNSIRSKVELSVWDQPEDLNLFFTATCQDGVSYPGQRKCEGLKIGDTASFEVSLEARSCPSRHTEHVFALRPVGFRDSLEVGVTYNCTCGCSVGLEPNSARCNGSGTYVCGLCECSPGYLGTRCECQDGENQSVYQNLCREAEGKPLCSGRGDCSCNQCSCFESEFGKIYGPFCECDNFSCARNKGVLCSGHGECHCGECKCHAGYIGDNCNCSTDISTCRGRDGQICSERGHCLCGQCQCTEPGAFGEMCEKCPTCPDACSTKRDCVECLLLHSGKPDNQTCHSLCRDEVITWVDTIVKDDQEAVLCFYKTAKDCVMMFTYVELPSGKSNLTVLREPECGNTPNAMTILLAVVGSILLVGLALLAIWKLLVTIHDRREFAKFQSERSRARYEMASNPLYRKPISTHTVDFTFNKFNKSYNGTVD
Protocol: as §1, with “αvβ5” for “αvβ3”, “PBST (10 mM Na2HPO4 pH 7.5, 150 mM NaCl, and 0.01%” for “T-PBS (PBS containing 0.05%”, “PBST,” for “T-PBS,”

[2] = inhibition of biotinylated vitronectin binding to immobilized αvβ3, read-out: IC50 value αv β3
[3] = inhibition of biotinylated vitronectin binding to immobilized αvβ5, read-out: IC50 value αvβ5

Structure (SMILES)	Concentration of radioactivity in tumor ([1]; 4 hours later)	Concentration of radioactivity in tumor ([1]; 24 hours later)	further results
Cc1cc(OCCCC(=O)NCCNC(=O)C(CS(=O)(=O)O)NC(=O)C(CS(=O)(=O)O)NC(=O)CN2CCN(CC(=O)[O-])CCN(CC(=O)[O-])CCN(CC(=O)[O-])CC2)cc(C)c1S(=O)(=O)NC(CNC(=O)CCCCc1ccc2c(n1)NCCC2)C(=O)O.[111In+3] (centres unmarked) [[^111In]-(O10)]	12.80 % ID/g	12.40 % ID/g	–
Cc1cc(OCCCC(=O)NCCNC(=O)[C@H](CS(=O)(=O)O)NC(=O)CN2CCN(CC(=O)O)CCN(CC(=O)O)CCN(CC(=O)O)CC2)cc(C)c1S(=O)(=O)N[C@H](CNC(=O)CCCCc1ccc2c(n1)NCCC2)C(=O)O [Compound K8, 2,2′,2′-(10-(2-(((R)-1-((2-(4-(4-(N—((R)-1-carboxy-2-(5-(5,6,7,8-tetrahydro-1,8-naphthyridin-2-yl)pentanamido)ethyl)sulfamoyl)-3,5-dimethylphenoxy)butanamido)ethyl)amino)-1-oxo-3-sulfopropan-2-yl)amino)-2-oxoethyl)-1,4,7,10-tetraazacyclododecane-1,4,7-triyl)triacetic acid]	–	–	pIC50 (Integrin αvβ3; [2]): > 9.00; pIC50 (Integrin αvβ5; [3]): 8.00 to 9.00
Cc1cc(OCCCC(=O)NCCNC(=O)C(CS(=O)(=O)O)NC(=O)CN2CCN3CCN4CCN(CC2)CC(=O)[O][In]([O]C(=O)C3)[O]C(=O)C4)cc(C)c1S(=O)(=O)NC(CNC(=O)CCCCc1ccc2c(n1)NCCC2)C(=O)O (centres unmarked) [AA]	–	–	pIC50 (Integrin αvβ3): > 9.00; pIC50 (Integrin αvβ5): > 9.00
O=C(O)CC(c1cncc(OCCCC(=O)NCCNC(=O)[C@H](CS(=O)(=O)O)NC(=O)[C@H](CS(=O)(=O)O)NC(=O)CN2CCN(CC(=O)O)CCN(CC(=O)O)CCN(CC(=O)O)CC2)c1)n1ccc2c(CCc3ccc4c(n3)NCCC4)cccc21 (stereo partly drawn) [Compound J9, 2,2′,2″-(10-((4R,7R)-16-((5-(2-carboxy-1-(4-(2-(5,6,7,8-tetrahydro-1,8-naphthyridin-2-yl)ethyl)-1H-indol-1-yl)ethyl)pyridin-3-yl)oxy)-2,5,8,13-tetraoxo-4,7-bis(sulfomethyl)-3,6,9,12-tetraazahexadecyl)-1,4,7,10-tetraazacyclododecane-1,4,7-triyl)triacetic acid]	–	–	pIC50 (Integrin αvβ3; [2]): > 9.00; pIC50 (Integrin αvβ5; [3]): 8.00 to 9.00
Cc1cc(OCCCC(=O)NCCNC(=O)COCCOCCNC(=O)[C@H](CS(=O)(=O)O)NC(=O)CN2CCN(CC(=O)[O-])CCN(CC(=O)[O-])CCN(CC(=O)[O-])CC2)cc(C)c1S(=O)(=O)N[C@@H](CNC(=O)c1ccc(CCc2ccc3c(n2)NCCC3)cc1)C(=O)O.[111In+3] [[^111In]-(G3)]	10.50 % ID/g	9.82 % ID/g	–
Cc1cc(OCCCC(=O)NCCNC(=O)COCCOCCNC(=O)COCCOCCNC(=O)CN2CCN(CC(=O)[O-])CCN(CC(=O)[O-])CCN(CC(=O)[O-])CC2)cc(C)c1S(=O)(=O)N[C@@H](CNC(=O)c1ccc(CCc2ccc3c(n2)NCCC3)cc1)C(=O)O.[111In+3] [[^111In]-(F3)]	11.80 % ID/g	8.41 % ID/g	–
Cc1cc(OCCCC(=O)NCCNC(=O)[C@H](CS(=O)(=O)O)NC(=O)CN2CCN(CC(=O)[O-])CCN(CC(=O)[O-])CCN(CC(=O)[O-])CC2)cc(C)c1S(=O)(=O)N[C@@H](CNC(=O)c1ccc(CCc2ccc3c(n2)NCCC3)cc1)C(=O)O.[111In+3] [[^111In]-(B2)]	8.58 % ID/g	11.00 % ID/g	–
O=C([O-])CN1CCN(CC(=O)[O-])CCN(CC(=O)NC(CS(=O)(=O)O)C(=O)NC(CS(=O)(=O)O)C(=O)NCCNC(=O)CCCOc2cncc(C(CC(=O)O)n3ccc4cc(OCCc5ccc6c(n5)NCCC6)ccc43)c2)CCN(CC(=O)[O-])CC1.[111In+3] (mixture of isomers) [[^111In]-(I21)]	10.60 % ID/g	9.95 % ID/g	–
O=C(O)C[C@H](NC(=O)c1ccc(CCc2ccc3c(n2)NCCC3)cc1)c1ccc(OCCCC(=O)NCCNC(=O)[C@H](CS(=O)(=O)O)NC(=O)[C@H](CS(=O)(=O)O)NC(=O)CN2CCN(CC(=O)O)CCN(CC(=O)O)CCN(CC(=O)O)CC2)c(F)c1 [Compound Q12, 2,2′,2″-(10-((4R,7R)-16-(4-((S)-2-carboxy-1-(4-(2-(5,6,7,8-tetrahydro-1,8-naphthyridin-2-yl)ethyl)benzamido)ethyl)-2-fluorophenoxy)-2,5,8,13-tetraoxo-4,7-bis(sulfomethyl)-3,6,9,12-tetraazahexadecyl)-1,4,7,10-tetraazacyclododecane-1,4,7-triyl)triacetic acid]	–	–	pIC50 (Integrin αvβ3; [2]): > 9.00
Cc1cc(OCCCC(=O)NCCNC(=O)C(CS(=O)(=O)O)NC(=O)CCC(NC(=O)CN2CCN(CC(=O)[O-])CCN(CC(=O)[O-])CCN(CC(=O)[O-])CC2)C(=O)NC(CS(=O)(=O)O)C(=O)NCCNC(=O)CCCOc2cc(C)c(S(=O)(=O)NC(CNC(=O)c3ccc(CCc4ccc5c(n4)NCCC5)cc3)C(=O)O)c(C)c2)cc(C)c1S(=O)(=O)NC(CNC(=O)c1ccc(CCc2ccc3c(n2)NCCC3)cc1)C(=O)O.[111In+3] (centres unmarked) [[^111In]-(H9)]	9.17 % ID/g	8.74 % ID/g	–
Cc1cc(OCCCC(=O)NCCNC(=O)COCCOCCNC(=O)C(CCCCN)NC(=O)CN2CCN(CC(=O)[O-])CCN(CC(=O)[O-])CCN(CC(=O)[O-])CC2)cc(C)c1S(=O)(=O)NC(CNC(=O)c1ccc(CCc2ccc3c(n2)NCCC3)cc1)C(=O)O.[111In+3] (centres unmarked) [[^111In]-(E3)]	11.00 % ID/g	12.40 % ID/g	–
Cc1cc(OCCCC(=O)NCCNC(=O)[C@H](CS(=O)(=O)O)NC(=O)[C@H](CS(=O)(=O)O)NC(=O)CN2CCN(CC(=O)[O-])CCN(CC(=O)[O-])CCN(CC(=O)[O-])CC2)cc(C)c1S(=O)(=O)N[C@@H](CNC(=O)c1ccc(CCc2ccc3c(n2)NCCC3)s1)C(=O)O.[111In+3] [[^111In]-(X9)]	8.54 % ID/g	8.54 % ID/g	–
Cc1cc(OCCCC(=O)NCCNC(=O)C(CS(=O)(=O)O)NC(=O)C(CS(=O)(=O)O)NC(=O)CN2CCN(CC(=O)[O-])CCN(CC(=O)[O-])CCN(CC(=O)[O-])CC2)cc(C)c1S(=O)(=O)NC(CNC(=O)c1ccc(CCCNc2ccccn2)cc1)C(=O)O.[111In+3] (centres unmarked) [[^111In]-(Z8)]	6.95 % ID/g	3.34 % ID/g	–
Cc1cc(OCCCC(=O)NCCNC(=O)[C@H](CS(=O)(=O)O)NC(=O)[C@H](CS(=O)(=O)O)NC(=O)CN2CCN(CC(=O)[O-])CCN(CC(=O)[O-])CCN(CC(=O)[O-])CC2)cc(C)c1S(=O)(=O)N[C@@H](CNC(=O)c1ccc(CCc2cccc(N)n2)cc1)C(=O)O.[111In+3] [[^111In]-(N3)]	9.75 % ID/g	5.93 % ID/g	–
Cc1cc(OCCCC(=O)NCCNC(=O)COCCOCCNC(=O)CN2CCN(CC(=O)[O-])CCN(CC(=O)[O-])CCN(CC(=O)[O-])CC2)cc(C)c1S(=O)(=O)N[C@@H](CNC(=O)c1ccc(CCc2ccc3c(n2)NCCC3)cc1)C(=O)O.[111In+3] [[^111In]-(D3)]	10.50 % ID/g	7.73 % ID/g	–
